# Laboratory results published in patent US20250177351A1, “ISOINDOLINE COMPOSITIONS AND METHODS FOR TREATING NEURODEGENERATIVE DISEASE” (Cognition Therapeutics, Inc., priority 2022, published 2025).
# Marks after values point to notes of the source that are not given here.
# How the values were obtained:
# [1] = Phase 1 MAD study: CT1812 concentration in CSF; type: in vivo, human; settings: humans, from CSF levels
# Description: CT1812 was quantitated in CSF using a validated LC-MS/MS method.
# sigma-2 receptor complex = biological target: T1, sigma-2 receptor complex (Mus musculus, UniProt Q8VD00); experiment: Projected receptor occupancy from human CSF concentrations, based on mouse Alzheimer's disease models; type: in vivo
# T1 construct: from tissue; host or cells: brain, in vivo (projection from human CSF concentrations; occupancy itself determined in transgenic mouse brain)
# T1 sequence (Q8VD00 1-176): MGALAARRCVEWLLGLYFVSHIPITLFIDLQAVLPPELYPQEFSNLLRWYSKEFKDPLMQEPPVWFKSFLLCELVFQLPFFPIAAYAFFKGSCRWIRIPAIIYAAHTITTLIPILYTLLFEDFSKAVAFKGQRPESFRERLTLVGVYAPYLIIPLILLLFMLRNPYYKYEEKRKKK
# Procedure: Horizontal lines indicate projected receptor occupancy based on concentration and receptor occupancy determined in pre-clinical mouse Alzheimer's disease models.
# At the 840 mg dose, CSF levels reached those associated with 98% receptor occupancy.
# [2] = Phase 1 single ascending dose (SAD)/food-effect study: plasma pharmacokinetics; type: in vivo, human
# Procedure: A Phase 1, two-part single and multiple ascending dose study was conducted in 7 and 4 cohorts of healthy human subjects respectively. […] In Part B, subjects were administered 280, 560, and 840 mg once daily for 14 days (8:2 A:P per cohort). An elderly cohort, age 65-75, was dosed at 560 mg once daily for 14 days (7:2 A:P). […] Cognitive testing was performed in the healthy elderly cohort at baseline and at Day 14 of treatment.
# Part A was a single ascending dose cohort study in which healthy, young subjects (less than 65 years old) received one dose of study drug in the morning after an overnight fast. Cohort dosing started at 10 mg and increased to 30 mg, 90 mg, 180 mg, 450 mg, and 1120 mg in subsequent cohorts. Six drug-treated and two placebo-treated subjects were randomized in each cohort. A seventh cohort of six subjects each received a single 90 mg dose of drug 30 min. after a meal. Following completion of all safety assessments and blood draws for PK analyses, subjects were discharged on Day 3.
# In Part A, blood draws for assessment of PK parameters occurred pre-dose and at 15, 30, 45, 60, and 90 minutes post dose as well as at 2, 3, 4, 8, 12, 24, 36, and 48 hours post dose. […] In Part B, blood samples for plasma PK analysis were taken on Day 1 at pre-dose and at 2 hours post-dose, on Day 3 at pre-dose and at 15, 30 and 45 minutes and 1, 2, 3, 4, 8, 12 and 24 hours post-dose, on Days 4, 6, 8 and 10 at pre-dose and at 1.5 hours post-dose and following the final dose on Day 14 at pre-dose and 15, 30 and 45 minutes and 1, 2, 4, 8, 12, 24, 36 and 48 hours post-dose.
# This was assessed by analysis of variance (ANOVA) of log-transformed Cmax, AUC0-24, AUC0-48, and/or AUC0-inf, using a model with factors for treatment (fed status or age [young vs. elderly] status) and subject within sequence. Treatment mean differences and 90% confidence intervals of the log transformed PK parameters were back-transformed, to present the geometric least squares means ratios and 90% confidence limits.
# [3] = system: DIV21 hippocampal/cortical cultures with Aβ oligomers; experiment: Neurogranin expression study in vitro; type: cell-based; settings: Aβ42 oligomers 500 nM, 1 hr, followed by CT1812 4.8 nM, 24 hr
# Procedure: Neurons were fixed in 3.75% formaldehyde and stained with full-length neurogranin (Abcam catalogue #ab23570, used in combination with novel Ng7 to detect full length neurogranin inAlzheimer's disease patient brain IP; Kvartsberg et al. 2015 Blennow lab), MAP2 (Millipore), and 4G8 (Biolegend) antibodies. Imaging was performed on Cellomics VX automated microscope with a 20×, 0.75 NA objective and analyzed using a compartmental analysis algorithm to measure staining in the nucleus versus cytoplasm.
# CSF proteins = experiment: CSF proteomics by tandem-mass tag mass spectrometry (TMT-MS), SPARC trial; type: in vivo, human
# Description: A stringent filter was used to reduce noise. […] Samples were acquired from placebo and the drug and interventional cohort. Using biomarker differential-expression analysis, proteins that were differentially expressed between drug and placebo cohorts were identified (p<0.05).
# [4] = system: CSF biomarkers (Aβ42, Aβ40, total tau, phosphorylated tau, NFL and neurogranin); experiment: Phase 1b/2a trial: CSF Alzheimer's disease biomarkers by ELISA; type: in vivo, human; settings: AD patients, before and after treatment
# Procedure: COG0102 clinical trial: This trial (ClinicalTrials.gov NCT02907567) was a randomized, double-blind, placebo-controlled clinical trial in mild to moderate Alzheimer's patients (MMSE 18-26) (See FIG. 1 for clinical trial design). The trial was conducted at six sites in Australia. Patients were randomized into placebo (n=5) or CT1812-treated groups: 90 mg (n=4), 280 mg (n=5) or 560 mg (n=5) and treated once daily for 28 days. Clinical chemistry was done at Sydpath (Sydney, AU). Pharmacokinetics were done at CPR Pharma Services (Adelaide, AU). Cerebrospinal fluid samples were taken at screening and day 21-28 of treatment and aliquoted. […] One set of CSF samples was analyzed for Alzheimer's disease biomarkers; protein measurements (Aβ42, Aβ40, total tau, tau phosphorylated at threonine 181 (phosphorylated tau), NFL and neurogranin) were performed using commercially available ELISA assays from Fujirebio according to the manufacturer's instructions (INNOTEST β-AMYLOID(1-42), INNOTEST β-AMYLOID(1-40), INNOTEST hTau Ag, INNOTEST PHOSPHO-TAU(181P), Uman Diagnostics NFL assay). Neurogranin was measured with a sandwich ELISA method using antibodies Ng2 and Ng22 developed at the University of Gotteborg (Kvartsberg et al. 2015). Identical aliquots of CSF, and plasma were analyzed for protein expression changes via LC/MSMS at Caprion (see below).
# [5] = AD patients treated at least 6 months, p<0.05
smiles,measurement,setting,value
CC(C)(C)Oc1cc(CCC(C)(C)N2Cc3ccc(S(C)(=O)=O)cc3C2)ccc1O [CT1812],blood-brain barrier penetration,[1],penetrates the blood-brain barrier
same,receptor occupancy at 560 mg,"sigma-2 receptor complex; 560 mg dose, read-out: receptor occupancy in transgenic mouse brain associated with human CSF level",95%
same,receptor occupancy in mouse brain equivalent to average human CSF concentrations,"sigma-2 receptor complex; 560 mg-840 mg dose range, 1.5 hr post-dose",97-98%
same,receptor occupancy at 840 mg,"sigma-2 receptor complex; 840 mg dose, read-out: receptor occupancy associated with human CSF level",98%
same,"exposure based on AUC, fed vs. fasted",[2]; 90 mg,no significant difference
same,t1/2,"[2]; SAD fasted 10 mg, Day 1, plasma, mean (n = 5)",12.0^‡ hr
same,t1/2,"[2]; SAD fasted 450 mg (n = 6), plasma, mean",12.2 h
same,increase of Cmax and AUC with dose,"[2]; SAD, 10 mg to 1120 mg",slightly greater than dose proportionally
same,AUC0-48h lower under fed vs fasted conditions (geometric least-squares mean),[2]; single 90 mg oral dose,~20%
same,AUC0-inf lower under fed vs fasted conditions (geometric least-squares mean),[2]; single 90 mg oral dose,~20%
same,Cmax lower under fed vs fasted conditions (geometric least-squares mean),[2]; single 90 mg oral dose,approximately 40%
same,full length neurogranin protein expression in neurons,[3],restores neurogranin expression
same,CHI3L1 (YKL-40) in CSF vs placebo,CSF proteins; [5],significantly decreased
same,CLU (clusterin) in CSF vs placebo,CSF proteins; [5],significantly decreased
same,SMOC1 in CSF vs placebo,CSF proteins; [5],significantly decreased
same,"number of significantly abundant proteins in CSF, CT1812 vs placebo","CSF proteins; N=18, p<0.05",326
same,"biomarker levels (Aβ, tau, NFL) in CSF",[4],remain unchanged
